Laboratory results published in PubChem BioAssay (NCI).
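The compound was tested at five concentrations on cells cultured in 96-well plates, with a 48-hour exposure period. Here, GI50 denotes the concentration required for 50% inhibition of growth. At the TGI there is no net growth.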

How the values were obtained:
Experiment in all cases: growth of human tumour cells (NCI), 48 h
ACHN renal = system: ACHN renal
SK-MEL-2 melanoma = system: SK-MEL-2 melanoma
OVCAR-5 ovarian = system: OVCAR-5 ovarian
K-562 leukemia = system: K-562 leukemia
HL-60(TB) leukemia = system: HL-60(TB) leukemia
HOP-62 NSCLC = system: HOP-62 NSCLC
NCI-H460 lung = system: NCI-H460 lung
MCF7 breast = system: MCF7 breast
SK-MEL-28 melanoma = system: SK-MEL-28 melanoma
UO-31 renal = system: UO-31 renal
SF-539 CNS = system: SF-539 CNS
HT29 colon = system: HT29 colon
UACC-257 melanoma = system: UACC-257 melanoma
SF-295 CNS = system: SF-295 CNS
SNB-75 CNS = system: SNB-75 CNS
MDA-MB-231 breast = system: MDA-MB-231 breast
SR leukemia = system: SR leukemia
NCI/ADR-RES ovarian = system: NCI/ADR-RES ovarian
SK-MEL-5 melanoma = system: SK-MEL-5 melanoma
HOP-92 NSCLC = system: HOP-92 NSCLC
COLO 205 colon = system: COLO 205 colon
HS 578T breast = system: HS 578T breast
MALME-3M melanoma = system: MALME-3M melanoma
BT-549 breast = system: BT-549 breast
OVCAR-4 ovarian = system: OVCAR-4 ovarian
UACC-62 melanoma = system: UACC-62 melanoma
M14 melanoma = system: M14 melanoma
CCRF-CEM leukemia = system: CCRF-CEM leukemia
HCC-2998 colon = system: HCC-2998 colon
MOLT-4 leukemia = system: MOLT-4 leukemia
CAKI-1 renal = system: CAKI-1 renal
HCT-15 colon = system: HCT-15 colon
NCI-H226 lung = system: NCI-H226 lung
MDA-MB-435 = system: MDA-MB-435
U251 CNS = system: U251 CNS
SN12C renal = system: SN12C renal
SW-620 colon = system: SW-620 colon
IGROV1 ovarian = system: IGROV1 ovarian
TK-10 renal = system: TK-10 renal
T-47D breast = system: T-47D breast
RPMI-8226 leukemia = system: RPMI-8226 leukemia
SK-OV-3 ovarian = system: SK-OV-3 ovarian
DU-145 prostate = system: DU-145 prostate
PC-3 prostate = system: PC-3 prostate
NCI-H23 lung = system: NCI-H23 lung
KM12 colon = system: KM12 colon

Which GI50 (ACHN renal) does the source give for `COc1ccc(-c2ccc(-c3ccc(C(=N)N)c(F)c3)s2)cc1` here?
Its GI50 is 209 nM.

And the TGI (ACHN renal)?
Its TGI is 448 nM.

What about the GI50 (SK-MEL-2 melanoma) of the same compound?
Its GI50 is 2010 nM.

And the TGI (SK-MEL-2 melanoma)?
The TGI was 4100 nM.

And the GI50 (OVCAR-5 ovarian)?
The GI50 was 323 nM.

And the TGI (OVCAR-5 ovarian)?
Its TGI is 1120 nM.

And the GI50 (K-562 leukemia)?
The GI50 was 216 nM.

And the TGI (K-562 leukemia)?
Its TGI is 573 nM.

And the GI50 (HL-60(TB) leukemia)?
Its GI50 is 215 nM.

And the TGI (HL-60(TB) leukemia)?
Its TGI is 462 nM.

What about the GI50 (HOP-62 NSCLC) of the same compound?
The GI50 was 1530 nM.

What about the TGI (HOP-62 NSCLC) of the same compound?
The TGI was 3070 nM.

What about the GI50 (NCI-H460 lung) of the same compound?
Its GI50 is 261 nM.

And the TGI (NCI-H460 lung)?
Its TGI is 690 nM.

What about the GI50 (MCF7 breast) of the same compound?
Its GI50 is 212 nM.

And the TGI (MCF7 breast)?
The TGI was 502 nM.

What about the GI50 (SK-MEL-28 melanoma) of the same compound?
Its GI50 is 1510 nM.

What about the TGI (SK-MEL-28 melanoma) of the same compound?
Its TGI is 3190 nM.

And the GI50 (UO-31 renal)?
The GI50 was 1010 nM.

What about the TGI (UO-31 renal) of the same compound?
The TGI was 2720 nM.

And the GI50 (SF-539 CNS)?
The GI50 was 793 nM.

And the TGI (SF-539 CNS)?
The TGI was 2630 nM.

And the GI50 (HT29 colon)?
The GI50 was 250 nM.

What about the TGI (HT29 colon) of the same compound?
Its TGI is 707 nM.

And the GI50 (UACC-257 melanoma)?
Its GI50 is 1340 nM.

And the TGI (UACC-257 melanoma)?
Its TGI is 2940 nM.

And the GI50 (SF-295 CNS)?
Its GI50 is 741 nM.

What about the TGI (SF-295 CNS) of the same compound?
Its TGI is 2120 nM.

What about the GI50 (SNB-75 CNS) of the same compound?
Its GI50 is 1620 nM.

And the TGI (SNB-75 CNS)?
The TGI was 3310 nM.

What about the GI50 (MDA-MB-231 breast) of the same compound?
The GI50 was 215 nM.

And the TGI (MDA-MB-231 breast)?
Its TGI is 515 nM.

What about the GI50 (SR leukemia) of the same compound?
The GI50 was 269 nM.

And the TGI (SR leukemia)?
The TGI was 787 nM.

What about the GI50 (NCI/ADR-RES ovarian) of the same compound?
The GI50 was 1090 nM.

And the TGI (NCI/ADR-RES ovarian)?
The TGI was 3440 nM.

What about the GI50 (SK-MEL-5 melanoma) of the same compound?
The GI50 was 1230 nM.

And the TGI (SK-MEL-5 melanoma)?
Its TGI is 2830 nM.

And the GI50 (HOP-92 NSCLC)?
Its GI50 is 867 nM.

And the TGI (HOP-92 NSCLC)?
Its TGI is 2810 nM.

And the GI50 (COLO 205 colon)?
Its GI50 is 184 nM.

What about the TGI (COLO 205 colon) of the same compound?
Its TGI is 359 nM.

What about the GI50 (HS 578T breast) of the same compound?
The GI50 was 1900 nM.

What about the TGI (HS 578T breast) of the same compound?
Its TGI is 4710 nM.

And the GI50 (MALME-3M melanoma)?
Its GI50 is 2290 nM.

What about the TGI (MALME-3M melanoma) of the same compound?
The TGI was 4700 nM.

And the GI50 (BT-549 breast)?
The GI50 was 1570 nM.

What about the TGI (BT-549 breast) of the same compound?
The TGI was 3240 nM.

And the GI50 (OVCAR-4 ovarian)?
Its GI50 is 296 nM.

And the TGI (OVCAR-4 ovarian)?
The TGI was 868 nM.

What about the GI50 (UACC-62 melanoma) of the same compound?
The GI50 was 1800 nM.

And the TGI (UACC-62 melanoma)?
The TGI was 3700 nM.

And the GI50 (M14 melanoma)?
The GI50 was 651 nM.

What about the TGI (M14 melanoma) of the same compound?
The TGI was 1910 nM.

And the GI50 (CCRF-CEM leukemia)?
Its GI50 is 286 nM.

And the TGI (CCRF-CEM leukemia)?
The TGI was 853 nM.

What about the GI50 (HCC-2998 colon) of the same compound?
The GI50 was 230 nM.

What about the TGI (HCC-2998 colon) of the same compound?
Its TGI is 478 nM.

And the GI50 (MOLT-4 leukemia)?
The GI50 was 495 nM.

What about the TGI (MOLT-4 leukemia) of the same compound?
Its TGI is 1870 nM.

And the GI50 (CAKI-1 renal)?
Its GI50 is 1540 nM.

What about the TGI (CAKI-1 renal) of the same compound?
The TGI was 2990 nM.

What about the GI50 (HCT-15 colon) of the same compound?
Its GI50 is 211 nM.

What about the TGI (HCT-15 colon) of the same compound?
The TGI was 528 nM.

What about the GI50 (NCI-H226 lung) of the same compound?
The GI50 was 1990 nM.

And the TGI (NCI-H226 lung)?
Its TGI is 4640 nM.

And the GI50 (MDA-MB-435)?
Its GI50 is 310 nM.

What about the TGI (MDA-MB-435) of the same compound?
The TGI was 881 nM.

What about the GI50 (U251 CNS) of the same compound?
Its GI50 is 184 nM.

What about the TGI (U251 CNS) of the same compound?
The TGI was 368 nM.

And the GI50 (SN12C renal)?
Its GI50 is 622 nM.

What about the TGI (SN12C renal) of the same compound?
The TGI was 1520 nM.

What about the GI50 (SW-620 colon) of the same compound?
The GI50 was 222 nM.

And the TGI (SW-620 colon)?
The TGI was 541 nM.

What about the GI50 (IGROV1 ovarian) of the same compound?
The GI50 was 1840 nM.

What about the TGI (IGROV1 ovarian) of the same compound?
The TGI was 4510 nM.

What about the GI50 (TK-10 renal) of the same compound?
Its GI50 is 720 nM.

What about the TGI (TK-10 renal) of the same compound?
Its TGI is 1910 nM.

And the GI50 (T-47D breast)?
Its GI50 is 185 nM.

What about the TGI (T-47D breast) of the same compound?
Its TGI is 413 nM.

What about the GI50 (RPMI-8226 leukemia) of the same compound?
Its GI50 is 369 nM.

And the TGI (RPMI-8226 leukemia)?
The TGI was 1800 nM.

And the GI50 (SK-OV-3 ovarian)?
Its GI50 is 1570 nM.

What about the TGI (SK-OV-3 ovarian) of the same compound?
Its TGI is 3160 nM.

What about the GI50 (DU-145 prostate) of the same compound?
Its GI50 is 564 nM.

What about the TGI (DU-145 prostate) of the same compound?
The TGI was 1760 nM.

And the GI50 (PC-3 prostate)?
Its GI50 is 787 nM.

And the TGI (PC-3 prostate)?
Its TGI is 2290 nM.

What about the GI50 (NCI-H23 lung) of the same compound?
The GI50 was 1430 nM.

And the TGI (NCI-H23 lung)?
Its TGI is 3350 nM.

And the GI50 (KM12 colon)?
Its GI50 is 291 nM.

And the TGI (KM12 colon)?
The TGI was 861 nM.
